Data published in BigSolDB 2.1.

CS(N)(=O)=O
Conditions	solubility (mole fraction)
in ethanol, 283.13 K	0.0265
in ethanol, 288.18 K	0.0338
in ethanol, 293.14 K	0.0412
in ethanol, 298.17 K	0.0484
in ethanol, 302.16 K	0.0614
in ethanol, 308.16 K	0.0792
in ethanol, 313.06 K	0.1
in ethanol, 318.07 K	0.132
in ethanol, 323.16 K	0.181
in ethyl acetate, 283.26 K	0.0297
in ethyl acetate, 288.16 K	0.0329
in ethyl acetate, 293.2 K	0.0373
in ethyl acetate, 298.1 K	0.0419
in ethyl acetate, 303.18 K	0.0458
in ethyl acetate, 308.24 K	0.0507
in ethyl acetate, 313.17 K	0.0565
in ethyl acetate, 318.07 K	0.0627
in ethyl acetate, 323.16 K	0.0684
in isobutanol, 283.2 K	0.0117
in isobutanol, 288.14 K	0.0145
in isobutanol, 293.06 K	0.0174
in isobutanol, 298.36 K	0.0216
in isobutanol, 303.13 K	0.026
in isobutanol, 308.14 K	0.0309
in isobutanol, 313.04 K	0.0384
in isobutanol, 318.16 K	0.0481
in isobutanol, 323.04 K	0.0592
in isopentanol, 283.16 K	0.00502
in isopentanol, 288.14 K	0.00747
in isopentanol, 293.16 K	0.0108
in isopentanol, 298.17 K	0.0138
in isopentanol, 303.05 K	0.018
in isopentanol, 308.06 K	0.0228
in isopentanol, 313.15 K	0.0288
in isopropanol, 283.06 K	0.0139
in isopropanol, 288.17 K	0.0178
in isopropanol, 293.14 K	0.0221
in isopropanol, 298.08 K	0.0277
in isopropanol, 303.06 K	0.0333
in isopropanol, 308.14 K	0.044
in isopropanol, 313.14 K	0.0556
in isopropanol, 318.16 K	0.0704
in isopropanol, 323.04 K	0.0917
in isopropyl acetate, 283.27 K	0.0099
in isopropyl acetate, 288.14 K	0.0112
in isopropyl acetate, 293.16 K	0.0127
in isopropyl acetate, 298.34 K	0.0148
in isopropyl acetate, 303.13 K	0.0169
in isopropyl acetate, 308.1 K	0.0195
in isopropyl acetate, 313.3 K	0.0219
in isopropyl acetate, 318.22 K	0.0251
in isopropyl acetate, 323.27 K	0.0294
in methanol, 283.27 K	0.0738
in methanol, 288.1 K	0.0884
in methanol, 293.2 K	0.108
in methanol, 298 K	0.133
in methanol, 303.3 K	0.163
in methanol, 308.36 K	0.2
in methanol, 313.13 K	0.243
in methanol, 318.1 K	0.286
in methanol, 322.2 K	0.33
in methyl propionate, 283.27 K	0.0251
in methyl propionate, 288.27 K	0.026
in methyl propionate, 293.06 K	0.0291
in methyl propionate, 298.14 K	0.0324
in methyl propionate, 303.36 K	0.036
in n-butanol, 283.1 K	0.0117
in n-butanol, 288.2 K	0.0131
in n-butanol, 293.18 K	0.015
in n-butanol, 298.16 K	0.0172
in n-butanol, 303.26 K	0.0218
in n-butanol, 308.06 K	0.027
in n-pentanol, 283.14 K	0.00546
in n-pentanol, 288.13 K	0.00713
in n-pentanol, 293.14 K	0.00998
in n-pentanol, 298.12 K	0.0156
in n-pentanol, 303.06 K	0.0219
in n-propanol, 283.16 K	0.0125
in n-propanol, 288.14 K	0.0153
in n-propanol, 293.08 K	0.0185
in n-propanol, 298.14 K	0.0213
in n-propanol, 303.12 K	0.0296
in n-propanol, 308.24 K	0.0375
in n-propanol, 313.18 K	0.0471
in n-propanol, 318.24 K	0.0608
in n-propanol, 323.24 K	0.08
in n-propyl acetate, 283.07 K	0.0114
in n-propyl acetate, 288.13 K	0.0125
in n-propyl acetate, 293.26 K	0.0141
in n-propyl acetate, 298.04 K	0.0163
in n-propyl acetate, 303.14 K	0.0185
in n-propyl acetate, 308.04 K	0.0214
in n-propyl acetate, 313 K	0.0243
in n-propyl acetate, 318.07 K	0.028
in n-propyl acetate, 323.17 K	0.0322
in sec-butanol, 283.3 K	0.00628
in sec-butanol, 288.14 K	0.0112
in sec-butanol, 293.13 K	0.0166
in sec-butanol, 298.06 K	0.0224
in sec-butanol, 303.1 K	0.0284
in sec-butanol, 308.26 K	0.036
in sec-butanol, 313.06 K	0.0459
